Experiments:
[1] = biological target: T1, human Cereblon WT GST-tagged protein (Homo sapiens, UniProt Q96SW2); test: CRBN-binding affinity, HTRF (CEREBLON BINDING kit); details: displacement of Thalidomide-Re reagent, 3 hours at room temperature
T1 construct: purchased CISBIO 64BDCRBNPEH
Description: The CEREBLON BINDING kits (specification: 10,000 tests; product number: Catalog #64BDCRBNPEH; CISBIO company) was used to determine the CRBN binding ability of the compounds to be tested through a HTRF method (homogeneous time-resolved fluorescence). The specific methods are as follows: • 1. […] Then, 2.5 μL of human Cereblon WT GST-tagged protein solution was added to each well. Finally, 5 μL of the thoroughly mixed Thalidomide-Re reagent and GST Eu antibody working solution were added to each of the aforementioned wells. […] The blank control wells were sequentially added with 2.5 μL of diluent #9 (1×) solution, 2.5 μL of PROTAC binding buffer, and 5 μL of thoroughly mixed Thalidomide-Re reagent and GST Eu antibody working solution. • 4.
OD 620 nmcompound is the absorbance value of each well of the compounds to be tested of the present disclosure at an emission wavelength of 620 nm. […] OD 620 nmcontrol is the absorbance value of the blank control well at an emission wavelength of 620 nm. […] OD 620 nmStd0 is the absorbance value of the solvent control well at an emission wavelength of 620 nm.

Wee1 = biological target: T2, Wee1 (Homo sapiens, UniProt P30291+Q96SW2); test: Western-blot assay, substrate protein in hPBMCs; format: cell-based; details: hPBMC cells, 24 hours, tested at 50 nM and 500 nM, table does not say which
T2 construct: endogenous in cells; host or cells: human PBMCs (Milecell Biotechnologies)
Description: (§1) The effect of the compounds of the present disclosure on the expression of target proteins in cells was detected using conventional Western blot analysis.
(§2) Human peripheral blood mononuclear cells (hPBMCs) at a density of 1×10^6 cells/mL were thawed according to the PBMC Recovery Protocol (Milecell Biotechnologies Inc, Shanghai).
(§3) After 24 hours of compounds treatment, cells were harvested and lysed in RIPA protein lysate containing phosphatase inhibitors on ice for 30-60 min, followed by centrifugation. The supernatant was aspirated as the extracted total cell protein. The protein concentration of the supernatant was determined using the conventional BCA (Bicinchoninic Acid) assay. The supernatant was then mixed with 4× SDS sample loading buffer, denatured at 95° C. for 5 minutes, and then subjected to SDS-PAGE electrophoresis on a polyacrylamide gel. Proteins were then transferred to a nitrocellulose (NC) membrane, blocked at room temperature for 1-2 h, and processed for antibody incubation and detection according to the manufacturer's instructions (Cell Signaling Technology).
(§4) Half-Maximal Degradation Concentration value (the drug concentration required for degrading proteins by 50%, abbreviated as DC50) reads method: comparing the grayscale values of Western blot bands from drug-treated samples with those from blank DMSO-treated controls, and identifying the drug concentration range at which the grayscale value is half that of the DMSO-treated control bands.
(§5) DC50 values can be calculated using ImageJ software to measure grayscale values of Western blot bands from drug-treated samples. The concentration-response curve is fitted to estimate the drug concentration corresponding to half the grayscale value.
(§6) Target protein remaining (%) refers to the percentage of target protein remaining in hPBMC cells after treatment with protein degrader compounds.
(§7) Calculation method for protein remaining (%): Use ImageJ software to measure grayscale values of Western blot bands from drug (protein degrader)-treated samples. The grayscale value of drug-treated bands is divided by that of internal control protein bands, and the resulting quotient is normalized to obtain the relative percentage of remaining target protein after protein degrader treatment.
(§8) Target protein degradation rate (%)=100%−target protein remaining (%).

GSPT1 = biological target: T3, GSPT1 (Homo sapiens, UniProt P15170+Q96SW2); test: Western-blot assay, substrate protein in hPBMCs; format: cell-based; details: hPBMC cells, 24 hours, tested at 50 nM and 500 nM, table does not say which
T3 construct: endogenous in cells; host or cells: human PBMCs (Milecell Biotechnologies)
Description: as §1, §2, §3, §4, §5, §6, §7, §8

T3 sequence (P15170 whole entry): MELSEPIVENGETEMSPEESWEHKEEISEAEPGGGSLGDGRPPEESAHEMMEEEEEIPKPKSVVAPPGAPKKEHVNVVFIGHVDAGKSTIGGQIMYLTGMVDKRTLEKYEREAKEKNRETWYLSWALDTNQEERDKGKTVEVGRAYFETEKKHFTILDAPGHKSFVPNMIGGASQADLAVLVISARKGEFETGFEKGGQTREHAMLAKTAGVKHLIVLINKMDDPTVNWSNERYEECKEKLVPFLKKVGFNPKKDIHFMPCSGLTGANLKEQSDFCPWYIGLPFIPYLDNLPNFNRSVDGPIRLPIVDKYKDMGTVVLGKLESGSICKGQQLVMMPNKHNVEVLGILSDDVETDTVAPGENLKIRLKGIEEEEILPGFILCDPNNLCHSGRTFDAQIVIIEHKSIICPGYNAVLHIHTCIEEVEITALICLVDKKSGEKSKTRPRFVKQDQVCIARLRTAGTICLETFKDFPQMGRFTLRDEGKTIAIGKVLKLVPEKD
T3 sequence (Q96SW2 whole entry): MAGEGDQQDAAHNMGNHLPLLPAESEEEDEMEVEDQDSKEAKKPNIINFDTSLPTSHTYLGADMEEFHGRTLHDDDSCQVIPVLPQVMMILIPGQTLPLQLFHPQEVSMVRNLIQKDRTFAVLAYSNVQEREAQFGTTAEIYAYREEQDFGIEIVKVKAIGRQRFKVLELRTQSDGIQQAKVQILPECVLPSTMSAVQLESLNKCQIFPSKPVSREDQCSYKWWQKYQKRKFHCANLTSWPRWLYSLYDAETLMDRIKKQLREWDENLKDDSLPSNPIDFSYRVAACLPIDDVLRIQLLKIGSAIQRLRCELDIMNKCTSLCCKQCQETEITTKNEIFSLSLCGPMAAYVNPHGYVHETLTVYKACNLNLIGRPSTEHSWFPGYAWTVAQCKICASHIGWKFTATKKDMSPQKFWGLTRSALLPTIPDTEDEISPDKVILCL
T3 sequence (Q16531 whole entry partner): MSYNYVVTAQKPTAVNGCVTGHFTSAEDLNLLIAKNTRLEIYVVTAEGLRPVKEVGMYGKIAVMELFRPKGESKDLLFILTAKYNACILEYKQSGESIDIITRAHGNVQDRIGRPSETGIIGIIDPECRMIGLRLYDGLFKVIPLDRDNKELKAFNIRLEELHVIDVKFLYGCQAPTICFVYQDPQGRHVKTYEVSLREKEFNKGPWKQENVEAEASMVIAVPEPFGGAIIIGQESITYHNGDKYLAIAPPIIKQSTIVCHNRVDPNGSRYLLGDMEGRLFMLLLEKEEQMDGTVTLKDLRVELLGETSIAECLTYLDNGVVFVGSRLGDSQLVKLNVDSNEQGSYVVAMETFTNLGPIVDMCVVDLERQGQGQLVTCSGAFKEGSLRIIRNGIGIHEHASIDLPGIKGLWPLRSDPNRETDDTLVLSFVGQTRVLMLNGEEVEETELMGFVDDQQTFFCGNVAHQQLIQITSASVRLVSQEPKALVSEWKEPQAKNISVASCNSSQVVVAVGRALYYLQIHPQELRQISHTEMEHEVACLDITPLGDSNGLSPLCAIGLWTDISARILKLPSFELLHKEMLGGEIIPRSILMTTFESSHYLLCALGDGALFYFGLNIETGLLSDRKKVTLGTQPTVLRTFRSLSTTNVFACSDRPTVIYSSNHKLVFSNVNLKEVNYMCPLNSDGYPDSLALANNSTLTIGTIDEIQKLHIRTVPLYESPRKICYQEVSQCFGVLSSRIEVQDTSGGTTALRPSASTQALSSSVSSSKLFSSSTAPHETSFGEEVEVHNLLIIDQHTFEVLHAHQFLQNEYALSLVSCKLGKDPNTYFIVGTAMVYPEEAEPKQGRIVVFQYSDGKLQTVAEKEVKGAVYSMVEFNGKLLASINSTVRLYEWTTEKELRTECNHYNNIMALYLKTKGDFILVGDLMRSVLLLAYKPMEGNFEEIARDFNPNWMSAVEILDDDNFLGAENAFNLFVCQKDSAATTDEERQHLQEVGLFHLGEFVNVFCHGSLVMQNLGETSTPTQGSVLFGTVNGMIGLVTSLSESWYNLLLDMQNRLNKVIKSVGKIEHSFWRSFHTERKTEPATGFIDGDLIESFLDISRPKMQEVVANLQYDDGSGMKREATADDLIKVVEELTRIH
T2 sequence (P30291 whole entry): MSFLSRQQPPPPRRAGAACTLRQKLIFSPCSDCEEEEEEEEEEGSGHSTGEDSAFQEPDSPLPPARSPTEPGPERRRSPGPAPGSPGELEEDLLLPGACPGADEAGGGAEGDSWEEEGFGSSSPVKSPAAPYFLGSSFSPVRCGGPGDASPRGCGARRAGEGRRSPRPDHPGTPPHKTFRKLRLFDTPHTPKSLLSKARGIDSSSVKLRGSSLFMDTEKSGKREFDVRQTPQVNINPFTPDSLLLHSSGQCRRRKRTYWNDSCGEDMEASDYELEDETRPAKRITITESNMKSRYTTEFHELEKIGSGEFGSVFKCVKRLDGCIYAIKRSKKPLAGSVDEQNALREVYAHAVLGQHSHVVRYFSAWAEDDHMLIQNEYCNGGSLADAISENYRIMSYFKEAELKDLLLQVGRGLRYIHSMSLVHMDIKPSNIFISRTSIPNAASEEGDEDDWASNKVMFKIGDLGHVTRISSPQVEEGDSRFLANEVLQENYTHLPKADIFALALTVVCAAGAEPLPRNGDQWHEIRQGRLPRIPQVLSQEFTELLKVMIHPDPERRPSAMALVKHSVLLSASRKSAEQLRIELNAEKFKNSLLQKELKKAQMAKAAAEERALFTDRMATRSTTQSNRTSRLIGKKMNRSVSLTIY
T2 sequence (Q96SW2 whole entry): as the sequence (Q96SW2 whole entry) above
T2 sequence (Q16531 whole entry partner): as the sequence (Q16531 whole entry partner) above
T1 sequence (Q96SW2 whole entry): as the sequence (Q96SW2 whole entry) above

| Compound | IC50 [1] | substrate protein remaining % (Wee1) | substrate protein remaining % (GSPT1) |
| --- | --- | --- | --- |
| O=C1CCC(N2Cc3cc(SC4CC5CNCC5C4)ccc3C2=O)C(=O)N1 (stereo not shown) [GT-06996, 3-(5-((octahydrocyclopenta[c]pyrrol-5-yl)thio)-1-oxoisoindolin-2-yl)piperidine-2,6-dione] | 1000 to 1900 nM |  |  |
| O=C1CCC(N2Cc3cc(SC4CCN(Cc5ccccc5-c5ccc(Cl)cc5)C4)ccc3C2=O)C(=O)N1 (stereo not shown) [GT-04195, 3-(5-((1-((4′-chloro-[1,1′-biphenyl]-2-yl)methyl)pyrrolidin-3-yl)thio)-1-oxoisoindolin-2-yl)piperidine-2,6-dione] | 1000 to 1900 nM |  |  |
| CC1(C)CCC(C(=O)N2CCC(Sc3ccc4c(c3)CN(C3CCC(=O)NC3=O)C4=O)CC2)=C(c2ccc(Cl)cc2)C1 (stereo not shown) [GT-06140, 3-(5-((1-(4′-chloro-5,5-dimethyl-3,4,5,6-tetrahydro-[1,1′-biphenyl]-2-carbonyl)piperidin-4-yl)thio)-1-oxoisoindolin-2-yl)piperidine-2,6-dione] | 500 to 1000 nM | A (0%≤ substrate protein remaining % ≤80%) |  |
| CC1(C)CCC(C(=O)N2CCC(Sc3ccc4c(c3)CN(C3CCC(=O)NC3=O)C4=O)C(F)(F)C2)=C(c2ccc(Cl)cc2)C1 (stereo not shown) [GT-07017, 3-(5-((1-(4′-chloro-5,5-dimethyl-3,4,5,6-tetrahydro-[1,1′-biphenyl]-2-carbonyl)-3,3-difluoropiperidin-4-yl)thio)-1-oxoisoindolin-2-yl)piperidine-2,6-dione] | 1000 to 1900 nM |  |  |
| O=C1CCC(N2Cc3cc(OC4CN(CC5=C(c6ccc(Cl)cc6)CCC(F)(F)C5)C4)ccc3C2=O)C(=O)N1 (stereo not shown) [GT-06563, 3-(5-((1-((4′-chloro-4,4-difluoro-3,4,5,6-tetrahydro-[1,1′-biphenyl]-2-yl)methyl)azetidin-3-yl)oxy)-1-oxoisoindolin-2-yl)piperidine-2,6-dione] | 500 to 1000 nM | A (0%≤ substrate protein remaining % ≤80%) |  |
| O=C1CCC(N2Cc3cc(OC4CN(C(c5ccc(Cl)cc5)c5ccc(Cl)cc5)C4)ccc3C2=O)C(=O)N1 (stereo not shown) [GT-06520, 3-(5-((1-(bis(4-chlorophenyl)methyl)azetidin-3-yl)oxy)-1-oxoisoindolin-2-yl)piperidine-2,6-dione] | 1000 to 1900 nM |  | A (0%≤ substrate protein remaining % ≤80%) |
| O=C1CCC(N2Cc3c(SC4CNC4)cccc3C2=O)C(=O)N1 (stereo not shown) [GT-06992, 3-(4-(azetidin-3-ylthio)-1-oxoisoindolin-2-yl)piperidine-2,6-dione] | 500 to 1000 nM |  |  |
| O=C1CCC(N2Cc3cc(SC4CN(C(c5ccc(Cl)cc5)c5ccc(Cl)cc5)C4)ccc3C2=O)C(=O)N1 (stereo not shown) [GT-06504, 3-(5-((1-(bis(4-chlorophenyl)methyl)azetidin-3-yl)thio)-1-oxoisoindolin-2-yl)piperidine-2,6-dione] | 500 to 1000 nM |  |  |
| O=C1CCC(N2Cc3cc(OC4CCCNCC4)ccc3C2=O)C(=O)N1 (stereo not shown) [GT-07003, 3-(5-(azepan-4-yloxy)-1-oxoisoindolin-2-yl)piperidine-2,6-dione] |  | A (0%≤ substrate protein remaining % ≤80%) |  |
| O=C1CCC(N2Cc3ccc(SC4CNC4)cc3C2=O)C(=O)N1 (stereo not shown) [GT-06993, 3-(6-(azetidin-3-ylthio)-1-oxoisoindolin-2-yl)piperidine-2,6-dione] | 1000 to 1900 nM |  |  |
| CC1(C)CCC(CN2CC(Sc3ccc4c(c3)C(=O)N(C3CCC(=O)NC3=O)C4)C2)=C(c2ccc(Cl)cc2)C1 (stereo not shown) [GT-06757, 3-(6-((1-((4′-chloro-5,5-dimethyl-3,4,5,6-tetrahydro-[1,1′-biphenyl]-2-yl)methyl)azetidin-3-yl)thio)-1-oxoisoindolin-2-yl)piperidine-2,6-dione] | 1000 to 1900 nM |  |  |
| O=C1CCC(N2Cc3cc(OC4CNC4)ccc3C2=O)C(=O)N1 (stereo not shown) [GT-03614, 3-(5-(azetidin-3-yloxy)-1-oxoisoindolin-2-yl)piperidine-2,6-dione] |  | A (0%≤ substrate protein remaining % ≤80%) |  |
| O=C1CCC(N2Cc3cc(SC4CCC5(CCNCC5)CC4)ccc3C2=O)C(=O)N1 (stereo not shown) [GT-06998, 3-(5-((3-azaspiro[5.5]undecan-9-yl)thio)-1-oxoisoindolin-2-yl)piperidine-2,6-dione] | 1000 to 1900 nM |  |  |
| O=C1CCC(N2Cc3cc(SC4CCNC4)ccc3C2=O)C(=O)N1 (stereo not shown) [GT-04309, 3-(1-oxo-5-(pyrrolidin-3-ylthio)isoindolin-2-yl)piperidine-2,6-dione] |  |  | A (0%≤ substrate protein remaining % ≤80%) |
| CC1(C)CCC(C(=O)N2CCC(Sc3ccc4c(c3)CN(C3CCC(=O)NC3=O)C4=O)C2)=C(c2ccc(Cl)cc2)C1 (stereo not shown) [GT-06139, 3-(5-((1-(4′-chloro-5,5-dimethyl-3,4,5,6-tetrahydro-[1,1′-biphenyl]-2-carbonyl)pyrrolidin-3-yl)thio)-1-oxoisoindolin-2-yl)piperidine-2,6-dione] | 500 to 1000 nM |  |  |
| O=C1CCC(N2Cc3cc(OC4CC5CNCC5C4)ccc3C2=O)C(=O)N1 (stereo not shown) [GT-07004, 3-(5-((octahydrocyclopenta[c]pyrrol-5-yl)oxy)-1-oxoisoindolin-2-yl)piperidine-2,6-dione] | 1000 to 1900 nM |  |  |

Second part, led by results:

| IC50 [1] | Compound | substrate protein remaining % (Wee1) | substrate protein remaining % (GSPT1) |
| --- | --- | --- | --- |
| < 500 nM | O=C1CCC(N2Cc3cc(SC4C[C@@H]5CN(C(=O)c6ccccc6-c6ccc(Cl)cc6)C[C@H]5C4)ccc3C2=O)C(=O)N1 (stereo partly drawn) [GT-07023, 3-(5-(((3aS,6aS)-2-(4′-chloro-[1,1′-biphenyl]-2-carbonyl)octahydro-cyclopenta[c]pyrrol-5-yl)thio)-1-oxoisoindolin-2-yl)piperidine-2,6-dione] | A (0%≤ substrate protein remaining % ≤80%) |  |
| 500 to 1000 nM | O=C1CCC(N2Cc3cc(SC4CCNCC4(F)F)ccc3C2=O)C(=O)N1 (stereo not shown) [GT-06999, 3-(5-((3,3-difluoropiperidin-4-yl)thio)-1-oxoisoindolin-2-yl)piperidine-2,6-dione] |  |  |
| < 500 nM | COc1ccc(C(c2ccc(OC)cc2)N2CC(Sc3ccc4c(c3)CN(C3CCC(=O)NC3=O)C4=O)C2)cc1 (stereo not shown) [GT-06923, 3-(5-((1-(bis(4-methoxyphenyl)methyl)azetidin-3-yl)thio)-1-oxoisoindolin-2-yl)piperidine-2,6-dione] |  |  |
| < 500 nM | O=C1CCC(N2Cc3cc(SC4CN(CC5=C(c6ccc(F)cc6)CCOC5)C4)ccc3C2=O)C(=O)N1 (stereo not shown) [GT-06513, 3-(5-((1-((4-(4-fluorophenyl)-5,6-dihydro-2H-pyran-3-yl)methyl)azetidin-3-yl)thio)-1-oxoisoindolin-2-yl)piperidine-2,6-dione] |  | A (0%≤ substrate protein remaining % ≤80%) |
| < 500 nM | O=C1CCC(N2Cc3cc(SC4CCCN(C(=O)c5ccccc5-c5ccc(Cl)cc5)CC4)ccc3C2=O)C(=O)N1 (stereo not shown) [GT-06644, 3-(5-((1-(4′-chloro-[1,1′-biphenyl]-2-carbonyl)azepan-4-yl)thio)-1-oxoisoindolin-2-yl)piperidine-2,6-dione] |  | A (0%≤ substrate protein remaining % ≤80%) |
| < 500 nM | O=C1CCC(N2Cc3cc(SC4CN(Cc5ccc(-c6ccco6)s5)C4)ccc3C2=O)C(=O)N1 (stereo not shown) [GT-06517, 3-(5-((1-((5-(furan-2-yl)thiophen-2-yl)methyl)azetidin-3-yl)thio)-1-oxoisoindolin-2-yl)piperidine-2,6-dione] |  |  |
| < 500 nM | CC1(C)CCC(C(=O)N2CCCC(Oc3ccc4c(c3)CN(C3CCC(=O)NC3=O)C4=O)CC2)=C(c2ccc(Cl)cc2)C1 (stereo not shown) [GT-07018, 3-(5-((1-(4′-chloro-5,5-dimethyl-3,4,5,6-tetrahydro-[1,1′-biphenyl]-2-carbonyl)azepan-4-yl)oxy)-1-oxoisoindolin-2-yl)piperidine-2,6-dione] |  |  |
| < 500 nM | O=C1CCC(N2Cc3c(OC4CNC4)cccc3C2=O)C(=O)N1 (stereo not shown) [GT-07000, 3-(4-(azetidin-3-yloxy)-1-oxoisoindolin-2-yl)piperidine-2,6-dione] |  |  |
| < 500 nM | O=C1CCC(N2Cc3cc(SC4CN(C(c5ccccc5)c5cccnc5)C4)ccc3C2=O)C(=O)N1 (stereo not shown) [GT-06807, 3-(1-oxo-5-((1-(phenyl(pyridin-3-yl)methyl)azetidin-3-yl)thio)isoindolin-2-yl)piperidine-2,6-dione] |  |  |

— patent publication US20260207578A1, “COMPOUND BASED ON SULFUR/OXYGEN SUBSTITUTED GLUTARIMIDE-BASED ISOINDOLINONE SKELETON AND USE THEREOF” (Gluetacs Therapeutics (Shanghai) Co., LTD., priority 2022, published 2026)
